# Source: article PMC4710522, “A Novel Triazolopyridine-Based Spleen Tyrosine Kinase Inhibitor That Arrests Joint Inflammation” (PLoS ONE, 2016)
# Values joined by “and” are separate entries in the source; they are usually repeats but may differ in a detail not shown here. Equal values may be shown once.
# Key:
# Arg_m = target: T1, Arg_m (Mus musculus, UniProt Q4JIM5); assay: SelectScreen kinase assay; format: biochemical; details: KM ATP
# T1 construct: purchased Life Technologies (Invitrogen) SelectScreen, Z'-LYTE / Adapta
# Experimental: (§1) Syk kinase mode of inhibition studies, including parameters described in Fig 1, were conducted on the LC3000 platform by Caliper Life Sciences (Hopkinton, MA) according to standard protocols developed by the supplier. […] Non-kinase enzyme assays and GPCR, ion channel, and transporter binding assays were run by CEREP (France). Non-GLP manual patch clamp hERG assays were run by ChanTest (Cleveland, Ohio). Vivid® Assay kits (Life Technologies) were used to measure the cytochrome P450 inhibition of the compound against CYP3A, CYP2C9, CYP2C19, CYP2D6, and CYP1A2, as described.
# (§2) Kinase activity was measured using either the Z’-Lyte® or the Adapta® protocols as part of the SelectScreen™ profiling service offered at Life Technologies (Grand Island, NY). For the single point measurements (Part A), CC-509 was kept constant at 3 µM while ATP concentrations [ATP] used were at the KM for ATP (KM ATP) for that specific enyzme, at 10 or 100 µM ATP (10 ATP or 100 ATP, respectively), as indicated. Values expressed as percent control (% control) relative to DMSO-only wells (uninhibited, 100%).
# (§3) Kinase activity was measured using either the Z’-Lyte® or the Adapta® protocols as part of the SelectScreen™ profiling service offered at Life Technologies (Grand Island, NY). […] Values expressed as percent control (% control) relative to DMSO-only wells (uninhibited, 100%).
# Blk_m = target: T2, Blk_m (Mus musculus, UniProt P16277); assay: SelectScreen kinase assay; format: biochemical; details: KM ATP
# T2 construct: purchased Life Technologies (Invitrogen) SelectScreen, Z'-LYTE / Adapta
# Experimental: as §1, §2, §3
# CDK1_cyclinB_h = target: T3, CDK1_cyclinB_h (Homo sapiens, UniProt P06493); assay: SelectScreen kinase assay; format: biochemical; details: KM ATP
# T3 construct: purchased Life Technologies (Invitrogen) SelectScreen, Z'-LYTE / Adapta
# Experimental: as §1, §2, §3
# DYRK3_h = target: T4, DYRK3_h (Homo sapiens, UniProt O43781); assay: SelectScreen kinase assay; format: biochemical; details: KM ATP
# T4 construct: purchased Life Technologies (Invitrogen) SelectScreen, Z'-LYTE / Adapta
# Experimental: as §1, §2, §3
# DYRK4_h = target: T5, DYRK4_h (Homo sapiens, UniProt Q9NR20); assay: SelectScreen kinase assay; format: biochemical; details: KM ATP
# T5 construct: purchased Life Technologies (Invitrogen) SelectScreen, Z'-LYTE / Adapta
# T5 sequence (Q9NR20 whole entry): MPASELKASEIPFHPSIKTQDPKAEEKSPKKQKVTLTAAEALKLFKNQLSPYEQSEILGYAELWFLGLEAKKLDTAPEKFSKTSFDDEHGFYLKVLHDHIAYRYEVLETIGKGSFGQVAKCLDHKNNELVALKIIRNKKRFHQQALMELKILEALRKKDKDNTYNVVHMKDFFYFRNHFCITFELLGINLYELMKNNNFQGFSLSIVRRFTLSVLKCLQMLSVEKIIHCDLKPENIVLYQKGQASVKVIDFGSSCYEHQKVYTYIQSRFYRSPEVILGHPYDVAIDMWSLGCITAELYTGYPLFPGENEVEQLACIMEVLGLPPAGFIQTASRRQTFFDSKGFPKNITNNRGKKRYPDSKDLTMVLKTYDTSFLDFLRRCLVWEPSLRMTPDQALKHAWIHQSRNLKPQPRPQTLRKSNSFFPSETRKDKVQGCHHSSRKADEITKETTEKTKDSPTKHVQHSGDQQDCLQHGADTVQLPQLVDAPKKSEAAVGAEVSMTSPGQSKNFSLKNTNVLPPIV
# Experimental: as §1, §2, §3
# EEF2K_h = target: T6, EEF2K_h (Homo sapiens, UniProt O00418); assay: SelectScreen kinase assay; format: biochemical; details: KM ATP
# T6 construct: purchased Life Technologies (Invitrogen) SelectScreen, Z'-LYTE / Adapta
# Experimental: as §1, §2, §3
# GRK2_h = target: T7, GRK2_h (Homo sapiens, UniProt P25098); assay: SelectScreen kinase assay; format: biochemical; details: KM ATP
# T7 construct: purchased Life Technologies (Invitrogen) SelectScreen, Z'-LYTE / Adapta
# Experimental: as §1, §2, §3
# GRK3_h = target: T8, GRK3_h (Homo sapiens, UniProt P35626); assay: SelectScreen kinase assay; format: biochemical; details: KM ATP
# T8 construct: purchased Life Technologies (Invitrogen) SelectScreen, Z'-LYTE / Adapta
# Experimental: as §1, §2, §3
# GRK5_h = target: T9, GRK5_h (Homo sapiens, UniProt P34947); assay: SelectScreen kinase assay; format: biochemical; details: KM ATP
# T9 construct: purchased Life Technologies (Invitrogen) SelectScreen, Z'-LYTE / Adapta
# T9 sequence (P34947 whole entry): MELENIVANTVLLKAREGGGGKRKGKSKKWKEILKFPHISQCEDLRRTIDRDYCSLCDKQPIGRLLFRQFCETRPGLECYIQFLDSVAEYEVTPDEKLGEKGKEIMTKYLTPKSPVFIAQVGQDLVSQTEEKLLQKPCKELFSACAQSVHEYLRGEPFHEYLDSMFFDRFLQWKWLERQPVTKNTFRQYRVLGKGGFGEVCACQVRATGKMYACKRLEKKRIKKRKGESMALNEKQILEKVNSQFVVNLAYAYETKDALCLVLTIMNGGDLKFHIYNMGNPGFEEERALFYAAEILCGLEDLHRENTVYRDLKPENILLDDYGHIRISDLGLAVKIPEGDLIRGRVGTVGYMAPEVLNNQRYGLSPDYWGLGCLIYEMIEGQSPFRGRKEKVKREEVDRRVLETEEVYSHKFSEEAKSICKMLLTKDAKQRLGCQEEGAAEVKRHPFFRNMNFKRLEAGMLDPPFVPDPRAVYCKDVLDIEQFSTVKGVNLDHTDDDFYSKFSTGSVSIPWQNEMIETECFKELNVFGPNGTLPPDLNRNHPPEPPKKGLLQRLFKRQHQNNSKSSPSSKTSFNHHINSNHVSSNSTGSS
# Experimental: as §1, §2, §3
# GRK6_h = target: T10, GRK6_h (Homo sapiens, UniProt P43250); assay: SelectScreen kinase assay; format: biochemical; details: KM ATP
# T10 construct: purchased Life Technologies (Invitrogen) SelectScreen, Z'-LYTE / Adapta
# Experimental: as §1, §2, §3
# GSG2 _h = target: T11, GSG2 _h (Homo sapiens, UniProt Q8TF76); assay: SelectScreen kinase assay; format: biochemical; details: KM ATP
# T11 construct: purchased Life Technologies (Invitrogen) SelectScreen, Z'-LYTE / Adapta
# Experimental: as §1, §2, §3
# MAP3K8_h = target: T12, MAP3K8_h (Homo sapiens, UniProt P41279); assay: SelectScreen kinase assay; format: biochemical; details: 100 µM ATP
# T12 construct: purchased Life Technologies (Invitrogen) SelectScreen, Z'-LYTE / Adapta
# T12 sequence (P41279 whole entry): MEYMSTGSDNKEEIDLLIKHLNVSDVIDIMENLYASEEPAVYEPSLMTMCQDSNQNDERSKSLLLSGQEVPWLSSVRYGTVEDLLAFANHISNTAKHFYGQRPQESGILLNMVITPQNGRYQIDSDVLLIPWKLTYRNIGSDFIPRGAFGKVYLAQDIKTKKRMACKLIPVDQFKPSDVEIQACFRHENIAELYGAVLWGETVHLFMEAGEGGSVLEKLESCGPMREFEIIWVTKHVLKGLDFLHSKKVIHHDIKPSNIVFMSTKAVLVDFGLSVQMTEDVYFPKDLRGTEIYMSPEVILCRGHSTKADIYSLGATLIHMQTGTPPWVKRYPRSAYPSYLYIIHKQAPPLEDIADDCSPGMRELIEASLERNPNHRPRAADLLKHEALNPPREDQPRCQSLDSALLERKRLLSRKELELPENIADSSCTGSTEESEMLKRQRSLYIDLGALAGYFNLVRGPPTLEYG
# Experimental: as §1, §2, §3
# MAPKAP-K3_h = target: T13, MAPKAP-K3_h (Homo sapiens, UniProt Q16644); assay: SelectScreen kinase assay; format: biochemical; details: KM ATP
# T13 construct: purchased Life Technologies (Invitrogen) SelectScreen, Z'-LYTE / Adapta
# T13 sequence (Q16644 whole entry): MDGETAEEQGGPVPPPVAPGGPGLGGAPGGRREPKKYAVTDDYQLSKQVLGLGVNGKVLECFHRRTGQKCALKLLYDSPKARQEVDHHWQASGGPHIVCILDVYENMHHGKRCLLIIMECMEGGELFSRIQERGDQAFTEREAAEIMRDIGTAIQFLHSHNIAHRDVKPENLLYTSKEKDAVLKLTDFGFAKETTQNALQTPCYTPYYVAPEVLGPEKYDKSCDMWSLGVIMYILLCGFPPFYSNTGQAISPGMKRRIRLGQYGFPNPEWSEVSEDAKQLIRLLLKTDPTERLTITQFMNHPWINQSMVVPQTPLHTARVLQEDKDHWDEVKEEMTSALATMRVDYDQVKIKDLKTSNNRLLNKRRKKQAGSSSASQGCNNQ
# Experimental: as §1, §2, §3
# PASK_h = target: T14, PASK_h (Homo sapiens, UniProt Q96RG2); assay: SelectScreen kinase assay; format: biochemical; details: KM ATP
# T14 construct: purchased Life Technologies (Invitrogen) SelectScreen, Z'-LYTE / Adapta
# T14 sequence (Q96RG2 whole entry): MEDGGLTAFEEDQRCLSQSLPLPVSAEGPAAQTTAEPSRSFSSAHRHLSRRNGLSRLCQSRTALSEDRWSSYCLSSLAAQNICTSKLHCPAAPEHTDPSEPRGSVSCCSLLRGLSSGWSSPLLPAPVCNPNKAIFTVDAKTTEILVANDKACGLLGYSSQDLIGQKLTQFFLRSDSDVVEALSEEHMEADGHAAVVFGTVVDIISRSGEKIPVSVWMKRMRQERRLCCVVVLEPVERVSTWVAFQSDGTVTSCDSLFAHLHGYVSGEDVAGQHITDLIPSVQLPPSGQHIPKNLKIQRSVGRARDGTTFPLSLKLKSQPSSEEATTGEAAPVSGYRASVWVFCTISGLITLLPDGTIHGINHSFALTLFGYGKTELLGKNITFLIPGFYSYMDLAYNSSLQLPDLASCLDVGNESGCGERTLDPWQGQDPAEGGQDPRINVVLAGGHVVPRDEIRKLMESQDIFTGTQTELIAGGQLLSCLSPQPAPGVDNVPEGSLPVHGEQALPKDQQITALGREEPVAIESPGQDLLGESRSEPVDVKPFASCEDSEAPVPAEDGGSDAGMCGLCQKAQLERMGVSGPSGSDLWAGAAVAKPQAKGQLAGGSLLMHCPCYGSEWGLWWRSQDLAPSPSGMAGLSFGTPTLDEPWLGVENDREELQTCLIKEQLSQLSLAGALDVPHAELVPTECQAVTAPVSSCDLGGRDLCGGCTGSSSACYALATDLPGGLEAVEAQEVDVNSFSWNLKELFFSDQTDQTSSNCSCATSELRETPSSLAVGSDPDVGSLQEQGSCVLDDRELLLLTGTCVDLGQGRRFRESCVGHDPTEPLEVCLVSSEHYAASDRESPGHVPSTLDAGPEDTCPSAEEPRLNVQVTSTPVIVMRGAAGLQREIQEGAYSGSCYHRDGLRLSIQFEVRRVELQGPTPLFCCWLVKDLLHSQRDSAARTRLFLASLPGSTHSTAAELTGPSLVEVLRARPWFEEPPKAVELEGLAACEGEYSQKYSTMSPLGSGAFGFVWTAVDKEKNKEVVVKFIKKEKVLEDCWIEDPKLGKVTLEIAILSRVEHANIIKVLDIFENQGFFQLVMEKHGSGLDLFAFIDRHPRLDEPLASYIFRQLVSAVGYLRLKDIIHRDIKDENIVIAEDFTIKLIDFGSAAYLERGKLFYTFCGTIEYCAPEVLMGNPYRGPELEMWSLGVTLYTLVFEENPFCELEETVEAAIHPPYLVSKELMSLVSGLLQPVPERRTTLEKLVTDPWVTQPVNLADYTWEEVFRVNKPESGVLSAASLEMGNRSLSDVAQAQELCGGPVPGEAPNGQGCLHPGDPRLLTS
# Experimental: as §1, §2, §3
# PKC-betaII_h = target: T15, PKC-betaII_h (Homo sapiens, UniProt P05771); assay: SelectScreen kinase assay; format: biochemical; details: KM ATP
# T15 construct: purchased Life Technologies (Invitrogen) SelectScreen, Z'-LYTE / Adapta
# Experimental: as §1, §2, §3
# PKC-gamma_h = target: T16, PKC-gamma_h (Homo sapiens, UniProt P05129); assay: SelectScreen kinase assay; format: biochemical; details: KM ATP
# T16 construct: purchased Life Technologies (Invitrogen) SelectScreen, Z'-LYTE / Adapta
# Experimental: as §1, §2, §3
# PKC-zeta_h = target: T17, PKC-zeta_h (Homo sapiens, UniProt Q05513); assay: SelectScreen kinase assay; format: biochemical; details: KM ATP
# T17 construct: purchased Life Technologies (Invitrogen) SelectScreen, Z'-LYTE / Adapta
# T17 sequence (Q05513 whole entry): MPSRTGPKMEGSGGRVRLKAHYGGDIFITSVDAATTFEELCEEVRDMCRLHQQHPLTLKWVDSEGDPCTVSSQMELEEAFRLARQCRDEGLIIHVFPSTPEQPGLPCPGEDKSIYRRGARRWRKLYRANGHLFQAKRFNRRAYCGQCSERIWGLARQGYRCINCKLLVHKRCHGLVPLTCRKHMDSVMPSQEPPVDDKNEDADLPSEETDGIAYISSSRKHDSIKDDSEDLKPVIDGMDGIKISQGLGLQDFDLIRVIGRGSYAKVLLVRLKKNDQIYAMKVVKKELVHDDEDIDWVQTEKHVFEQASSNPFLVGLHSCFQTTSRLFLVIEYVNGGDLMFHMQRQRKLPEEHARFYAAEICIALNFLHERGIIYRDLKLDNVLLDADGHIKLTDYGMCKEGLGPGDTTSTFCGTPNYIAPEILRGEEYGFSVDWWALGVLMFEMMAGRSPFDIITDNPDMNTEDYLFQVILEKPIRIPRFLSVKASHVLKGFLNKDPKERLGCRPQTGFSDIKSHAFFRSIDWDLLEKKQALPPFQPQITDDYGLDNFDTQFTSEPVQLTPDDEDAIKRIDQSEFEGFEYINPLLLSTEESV
# Experimental: as §1, §2, §3
# SGK2_h = target: T18, SGK2_h (Homo sapiens, UniProt Q9HBY8); assay: SelectScreen kinase assay; format: biochemical; details: KM ATP
# T18 construct: purchased Life Technologies (Invitrogen) SelectScreen, Z'-LYTE / Adapta
# T18 sequence (Q9HBY8 whole entry): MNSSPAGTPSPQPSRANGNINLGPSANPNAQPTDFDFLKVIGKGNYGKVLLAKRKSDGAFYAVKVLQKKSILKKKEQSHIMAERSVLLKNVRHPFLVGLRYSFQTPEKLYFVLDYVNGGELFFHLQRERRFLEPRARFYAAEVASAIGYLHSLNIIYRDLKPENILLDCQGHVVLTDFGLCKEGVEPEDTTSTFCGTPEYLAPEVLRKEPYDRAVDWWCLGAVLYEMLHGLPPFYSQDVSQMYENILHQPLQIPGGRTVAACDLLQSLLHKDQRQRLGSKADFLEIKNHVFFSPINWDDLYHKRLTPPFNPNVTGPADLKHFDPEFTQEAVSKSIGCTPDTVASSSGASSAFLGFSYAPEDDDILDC
# Experimental: as §1, §2, §3
# TSSK2_h = target: T19, TSSK2_h (Homo sapiens, UniProt Q96PF2); assay: SelectScreen kinase assay; format: biochemical; details: KM ATP
# T19 construct: purchased Life Technologies (Invitrogen) SelectScreen, Z'-LYTE / Adapta
# T19 sequence (Q96PF2 whole entry): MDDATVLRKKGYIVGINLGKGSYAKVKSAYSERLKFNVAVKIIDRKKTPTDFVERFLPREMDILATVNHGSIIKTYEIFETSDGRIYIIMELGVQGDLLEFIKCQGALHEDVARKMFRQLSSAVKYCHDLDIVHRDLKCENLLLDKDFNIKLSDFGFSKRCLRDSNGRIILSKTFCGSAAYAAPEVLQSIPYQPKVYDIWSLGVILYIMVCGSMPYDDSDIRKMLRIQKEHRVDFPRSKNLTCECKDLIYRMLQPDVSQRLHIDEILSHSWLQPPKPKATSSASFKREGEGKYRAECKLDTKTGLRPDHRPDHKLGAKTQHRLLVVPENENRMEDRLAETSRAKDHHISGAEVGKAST
# Experimental: as §1, §2, §3
# FGFR4_h = target: T20, FGFR4_h (Homo sapiens, UniProt P22455); assay: SelectScreen kinase assay; format: biochemical; details: KM ATP, read-out: % control
# T20 construct: purchased Life Technologies (Invitrogen) SelectScreen, Z'-LYTE / Adapta
# Adenosine A1 = target: T21, Adenosine A1 (Homo sapiens, UniProt P30542); assay: receptor, ion channel, transporter binding panel (CEREP)
# T21 construct: CEREP (contract assay)
# Experimental: as §1
# Adenosine A2a = target: T22, Adenosine A2a (Homo sapiens, UniProt P29274); assay: as above
# T22 construct: CEREP (contract assay)
# T22 sequence (P29274 whole entry): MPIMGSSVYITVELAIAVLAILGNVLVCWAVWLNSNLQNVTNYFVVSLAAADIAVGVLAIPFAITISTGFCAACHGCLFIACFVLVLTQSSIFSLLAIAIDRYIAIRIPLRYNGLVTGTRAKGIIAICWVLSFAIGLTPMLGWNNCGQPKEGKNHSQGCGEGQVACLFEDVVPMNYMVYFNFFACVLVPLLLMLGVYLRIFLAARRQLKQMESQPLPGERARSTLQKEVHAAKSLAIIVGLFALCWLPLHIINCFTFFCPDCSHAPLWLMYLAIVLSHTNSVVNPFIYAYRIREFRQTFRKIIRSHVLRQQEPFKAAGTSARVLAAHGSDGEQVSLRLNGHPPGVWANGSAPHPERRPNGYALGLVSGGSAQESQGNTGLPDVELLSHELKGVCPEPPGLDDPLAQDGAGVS
# Experimental: as §1
# Adenosine A3 = target: T23, Adenosine A3 (Homo sapiens, UniProt P0DMS8); assay: as above
# T23 construct: CEREP (contract assay)
# Experimental: as §1
# [1] = target: T24, human ether-à-go-go-related Gene (hERG) channel (Homo sapiens, UniProt Q12809); assay: non-GLP manual patch clamp hERG assay (ChanTest); format: cell-based; details: data not shown
# T24 construct: ChanTest (contract assay)
# Experimental: as §1
# [2] = tested on: Tel-Syk expressing BaF3 cells; assay: Tel-Syk BaF3 viability assay (growth factor-independent growth); format: cell-based, murine; details: Mus musculus; Tel-Syk BaF3, absence of IL-3
# Experimental: HEK293 T-REx™ (Life Technologies, Grand Island, NY) stably transfected with human TEL-Syk (cloned as described prior section DNA constructs) were plated on black poly-D-lysine coated 96-well plates (BD Biosciences, San Diego, CA) in culture media containing tetracycline-free fetal bovine serum (Clontech, MountainView, CA) for 16 hours in a tissue culture incubator. Tel-Syk expression was induced for 6 hours in fresh growth media containing 1 μg/ml tetracycline (Sigma Chemicals, St. Louis, MO). Plates were preincubated with CC-509 for 90 minutes, fixed immediately with 4% formaldehyde in 1X PBS for 20 min at room temperature, and washed/permeabilized 5-times with PBS containing 0.1% Triton X-100. Plates were blocked with Odyssey Blocking Buffer for 90 minutes at room temperature and incubated overnight at 4°C on a rotating platform with rabbit phospho-Syk (1:1000) and mouse V5 (1:2500) primary antibodies diluted in Odyssey Blocking Buffer. […] Viability of BaF/3 cells expressing Tel-Syk grown in the absence of murine IL-3 was measured using Cell-Titer Glo reagent (Promega, Madison, WI), as described by supplier.
compound,measurement,setting,value
"c1cc(CC2CCOCC2)n2nc(Nc3ccc4c(NC5CCOCC5)n[nH]c4c3)nc2c1 [CC-509, [3-(2H-3,4,5,6-tetrahydropyran-4-ylamino)(1H-indazol-6-yl)][5-(2H-3,4,5,6-tetrahydropyran-4-ylmethyl)(2H-1,2,4-triazolo[1,5-a]pyridin-2-yl)]amine]",remaining activity at 3 µM,Arg_m; read-out: % control,31%
same,remaining activity at 3 µM,Blk_m; read-out: % control,63%
same,remaining activity at 3 µM,CDK1_cyclinB_h; read-out: % control,82%
same,remaining activity at 3 µM,DYRK3_h; read-out: % control,80%
same,remaining activity at 3 µM,DYRK4_h; read-out: % control,97%
same,remaining activity at 3 µM,EEF2K_h; read-out: % control,94%
same,remaining activity at 3 µM,GRK2_h; read-out: % control,82%
same,remaining activity at 3 µM,GRK3_h; read-out: % control,98%
same,remaining activity at 3 µM,GRK5_h; read-out: % control,96%
same,remaining activity at 3 µM,GRK6_h; read-out: % control,92%
same,remaining activity at 3 µM,GSG2 _h; read-out: % control,100%
same,remaining activity at 3 µM,MAP3K8_h; read-out: % control,79%
same,remaining activity at 3 µM,MAPKAP-K3_h; read-out: % control,88%
same,remaining activity at 3 µM,PASK_h; read-out: % control,100%
same,remaining activity at 3 µM,PKC-betaII_h; read-out: % control,43%
same,remaining activity at 3 µM,PKC-gamma_h; read-out: % control,45%
same,remaining activity at 3 µM,PKC-zeta_h; read-out: % control,86%
same,remaining activity at 3 µM,SGK2_h; read-out: % control,89%
same,remaining activity at 3 µM,TSSK2_h; read-out: % control,93%
same,remaining activity at 3 µM,FGFR4_h,68%
same,inhibition at 10 µM,Adenosine A1,89%
same,inhibition at 10 µM,Adenosine A2a,96%
same,inhibition at 10 µM,Adenosine A3,84%
same,inhibition of hERG channel activity,[1],did not inhibit
same,IC50,[2],1610 ± 410 nM
"COc1cc(Nc2ncc(F)c(Nc3ccc4c(n3)NC(=O)C(C)(C)O4)n2)cc(OC)c1OC [R406, reference compound]",% control,Arg_m; 3 µM,34%
same,% control,Blk_m; 3 µM,11%
same,% control,CDK1_cyclinB_h; 3 µM,68%
same,% control,DYRK3_h; 3 µM,90%
same,% control,DYRK4_h; 3 µM,69%
same,% control,EEF2K_h; 3 µM,92%
same,% control,GRK2_h; 3 µM,99%
same,% control,GRK3_h; 3 µM,103%
same,% control,GRK5_h; 3 µM,108%
same,% control,GRK6_h; 3 µM,100%
same,% control,GSG2 _h; 3 µM,64%
same,% control,MAP3K8_h; 3 µM,52%
same,% control,MAPKAP-K3_h; 3 µM,96%
same,% control,PASK_h; 3 µM,104%
same,% control,PKC-betaII_h; 3 µM,19%
same,% control,PKC-gamma_h; 3 µM,16%
same,% control,PKC-zeta_h; 3 µM,100% and 101%
same,% control,SGK2_h; 3 µM,92%
same,% control,TSSK2_h; 3 µM,96%
